Test results published in patent US8885174B2, “Monitoring energy and matter fluxes by use of electromagnetic radiations” (priority 2009, dated 2014).
“Also recorded” adds a separate entry of the source. Where two headings read alike, the source gives them in different places.

Key:
HEKnorm = assay: DHM phase signal recording on non-transfected HEK cells (HEKnorm); assay type: cell-based; conditions: −100 mV, GABA 3 μM, 30 s
Protocol: (§1) Electrophysiology recording: All cultures were perfused in an artificial cerebrospinal fluid (ACSF) containing (in mM): […] (pH 7.4; Room temperature). For some experiments performed on HEK cells, picrotoxin (30 μM, Tocris) was added to the ACSF. […] Whole-cell recordings were made, and signals were amplified by using Multiclamp 700B amplifiers (Axon Instruments, Union City, Calif.) and digitized by means of an ITC-1600 interface (Instrutech, Great Neck, N.Y.) to a PC computer running Igor Pro (Wavemetrics, Portland, Oreg.). All currents (sampling interval, 5 kHz) were low-pass filtered (2 kHz). They were recorded with pipettes containing 95 mM potassium-gluconate, 40 mM KCl, 10 mM Hepes, 2 mM MgCl2 (pH 7.3). For some experiments, 95 mM potassium-gluconate was substituted with 95 mM KCl to reach a final concentration of [Cl^−]intrapip, to 139 mM. The pipettes were pulled with a DMZ universal puller.
Imaging: Holograms are acquired with a DHMT 1000 (Lyncée Tech SA, PSE-EPFL). […] The object wave diffracted by the specimen is collected by a microscope objective and interferes with a reference beam to produce the hologram recorded by the CCD camera. […] The reconstruction algorithm provides simultaneous amplitude and quantitative phase images of the cells (Koala software).

[1] = tested on: cortical neurons in primary culture; assay: DHM multisite phase recording on unpatched cortical neurons in primary culture; assay type: cell-based, mice; conditions: GABA 100 μM, 30 s
Protocol: Neuronal cell cultures: Primary cultures of cortical neurons were prepared from E17 OF1 mice embryos. Briefly, embryos were decapitated and brains removed and placed in PBS-glucose. Cortex was removed under a dissecting microscope and collected in a small Petri dish in PBS-glucose. Cell dissociation was obtained by gentle trituration with a fire-polished Pasteur pipette in Neurobasal medium supplemented with B27 and GlutaMAX (Invitrogen). Cells were plated at an average density of 15000 cells/cm^2 in supplemented Neurobasal medium on poly-ornithine coated glass coverslips (20 mm Ø). After 3-4 h, coverslips were transferred to dishes containing glial cell monolayers in supplemented Neurobasal medium. Neurons were maintained at 37° C. in a humidified atmosphere of 95% air/5% CO2 and were used after 21-35 days in vitro (DIV).
Imaging: Holograms are acquired with a DHMT 1000 (Lyncée Tech SA, PSE-EPFL). A laser diode produces the coherent light (λ=683 nm) which is divided by a beam splitter into a reference wave and an object wave. The object wave diffracted by the specimen is collected by a microscope objective and interferes with a reference beam to produce the hologram recorded by the CCD camera. Frequency of hologram acquisition is 0.2 Hz. Reconstruction of the original image from the hologram is numerically achieved by a computer. The reconstruction algorithm provides simultaneous amplitude and quantitative phase images of the cells (Koala software). It is important to note that an extensive quality control of the DHM technique has been published by Rappaz et al “Comparative study of human erythrocytes by digital holographic microscopy, confocal microscopy, and impedance volume analyzer” Cytom Part A 73A, 895-903 (2008).
Neurons also presented heterogeneous phase responses.

[2] = target: T1, rat GABAA α1β2γ2s receptor expressed in HEK 293 cells (HEKGABA) (Rattus norvegicus, UniProt P18508+P62813+P63138); assay type: cell-based; conditions: picrotoxin 30 μM, −100 mV; for effect on phase signal in HEKGABA (in words): GABA 3 μM, muscimol 1 μM, 30 s
T1 sequence (P63138 25-474): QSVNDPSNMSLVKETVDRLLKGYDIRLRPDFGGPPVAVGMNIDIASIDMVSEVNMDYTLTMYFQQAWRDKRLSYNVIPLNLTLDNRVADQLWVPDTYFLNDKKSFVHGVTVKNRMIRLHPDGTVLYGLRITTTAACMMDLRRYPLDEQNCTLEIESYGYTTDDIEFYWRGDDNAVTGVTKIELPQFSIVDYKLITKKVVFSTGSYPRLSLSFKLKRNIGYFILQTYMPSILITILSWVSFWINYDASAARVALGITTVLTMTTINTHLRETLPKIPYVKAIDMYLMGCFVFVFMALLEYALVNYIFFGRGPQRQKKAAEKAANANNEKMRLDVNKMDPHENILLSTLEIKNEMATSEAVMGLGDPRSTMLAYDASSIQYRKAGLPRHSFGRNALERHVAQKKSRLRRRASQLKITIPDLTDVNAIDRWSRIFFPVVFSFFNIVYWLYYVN
T1 sequence (P18508 39-466): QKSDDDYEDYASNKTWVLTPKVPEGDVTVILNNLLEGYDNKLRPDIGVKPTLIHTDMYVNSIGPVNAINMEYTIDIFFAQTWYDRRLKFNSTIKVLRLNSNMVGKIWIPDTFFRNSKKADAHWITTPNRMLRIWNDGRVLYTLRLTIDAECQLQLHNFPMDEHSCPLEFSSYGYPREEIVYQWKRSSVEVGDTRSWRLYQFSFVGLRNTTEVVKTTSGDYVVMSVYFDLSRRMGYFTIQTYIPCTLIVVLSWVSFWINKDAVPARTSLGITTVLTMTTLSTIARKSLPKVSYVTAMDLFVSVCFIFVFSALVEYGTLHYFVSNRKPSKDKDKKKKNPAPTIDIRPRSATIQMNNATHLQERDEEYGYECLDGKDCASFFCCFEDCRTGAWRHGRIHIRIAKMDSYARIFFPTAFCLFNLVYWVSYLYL
T1 sequence (P62813 28-455): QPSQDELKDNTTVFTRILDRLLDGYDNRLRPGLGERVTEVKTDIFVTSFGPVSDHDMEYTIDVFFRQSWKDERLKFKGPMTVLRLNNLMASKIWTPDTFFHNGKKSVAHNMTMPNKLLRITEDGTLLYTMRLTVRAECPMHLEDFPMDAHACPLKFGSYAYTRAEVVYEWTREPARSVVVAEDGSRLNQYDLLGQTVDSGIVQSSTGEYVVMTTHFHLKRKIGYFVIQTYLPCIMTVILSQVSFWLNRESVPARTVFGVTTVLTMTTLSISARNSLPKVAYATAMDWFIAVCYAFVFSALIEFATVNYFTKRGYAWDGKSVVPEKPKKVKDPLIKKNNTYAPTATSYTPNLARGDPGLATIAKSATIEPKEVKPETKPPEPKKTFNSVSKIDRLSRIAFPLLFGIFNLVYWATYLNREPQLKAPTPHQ
Excerpt: HEKGABA cells: HEK 293 cells stably expressing configurations of rat GABAA receptors (HEKGABA) were generously given by Hoffmann-LaRoche (Basel, Switzerland). Briefly, cDNAs encoding rat GABAA α1, β2 and γ2s subunits were subcloned into the expression vectors pIRESpuro2, pIRESneo2 and pIREShygro2 vectors (Clontech, Mountain View, Calif.), respectively. The pIRES/GABAA α1, β2, γ2s, constructs were sequenced to confirm their nucleotide sequence and then cotransfected into HEK 293 cells at a ratio of 1:1:2 (plasmid mass ratio) using the lipofectamine 2000 kit according to the manufacturer's instructions (Invitrogen, Carlsbad, Calif., USA). Transfected cells were grown in minimal essential medium (Invitrogen) supplemented with 10% fetal calf serum (Invitrogen), 20 mM HEPES (Invitrogen) and 100 U/ml penicillin/100 μg/ml streptomycin (Invitrogen) for 48 hours and then, the cells were transferred to the selection medium containing 0.3 μg/ml puromycin (Clontech, Mountain View, Calif., USA), 300 μg/ml hygromycin B (Roche Diagnostics, Mannheim, Germany) and 200 μg/ml G418 (Invitrogen) for the generation of stable cell lines. Cell colonies were isolated and expression of the GABAA α1β2γ2s receptor was determined by [^3H] flumazenil binding.
as §1
Imaging: Holograms are acquired with a DHMT 1000 (Lyncée Tech SA, PSE-EPFL). A laser diode produces the coherent light (λ=683 nm) which is divided by a beam splitter into a reference wave and an object wave. The object wave diffracted by the specimen is collected by a microscope objective and interferes with a reference beam to produce the hologram recorded by the CCD camera. Frequency of hologram acquisition is 0.2 Hz. Reconstruction of the original image from the hologram is numerically achieved by a computer. The reconstruction algorithm provides simultaneous amplitude and quantitative phase images of the cells (Koala software).
Offline analysis: The electrophysiological and optical recordings were analysed by using MATLAB 7.6 (Mathworks Software, Natick, Mass.) and all curves have been fitted by using ORIGIN 7.5 (Microcal Software, Northampton, Mass.). […] All data are presented as means±SEM. Student's t-test (paired or unpaired) to determine statistical significance (p<0.05).

[3] = target: T1, rat GABAA α1β2γ2s receptor expressed in HEK 293 cells (HEKGABA); assay: Whole-cell electrophysiology recording of GABAA current (IGABA, I/V curve) on HEKGABA cells; assay type: cell-based; conditions: GABA 3 μM or muscimol 1 μM, 30 s
Excerpt: HEKGABA cells: HEK 293 cells stably expressing configurations of rat GABAA receptors (HEKGABA) were generously given by Hoffmann-LaRoche (Basel, Switzerland). Briefly, cDNAs encoding rat GABAA α1, β2 and γ2s subunits were subcloned into the expression vectors pIRESpuro2, pIRESneo2 and pIREShygro2 vectors (Clontech, Mountain View, Calif.), respectively. The pIRES/GABAA α1, β2, γ2s, constructs were sequenced to confirm their nucleotide sequence and then cotransfected into HEK 293 cells at a ratio of 1:1:2 (plasmid mass ratio) using the lipofectamine 2000 kit according to the manufacturer's instructions (Invitrogen, Carlsbad, Calif., USA). […] Cell colonies were isolated and expression of the GABAA α1β2γ2s receptor was determined by [^3H] flumazenil binding.
Electrophysiology recording: All cultures were perfused in an artificial cerebrospinal fluid (ACSF) containing (in mM): NaCl 150, KCl 3, D-glucose, 10 HEPES 10, CaCl2 3, and mM MgCl2. […] They were recorded with pipettes containing 95 mM potassium-gluconate, 40 mM KCl, 10 mM Hepes, 2 mM MgCl2 (pH 7.3). […]
Offline analysis: The electrophysiological and optical recordings were analysed by using MATLAB 7.6 (Mathworks Software, Natick, Mass.) and all curves have been fitted by using ORIGIN 7.5 (Microcal Software, Northampton, Mass.). […]

Compound | effect on phase signal in HEKnorm (in words) (HEKnorm) | Δφ phase signal in HEKnorm (HEKnorm) [°] | phase response, neurons with increase of phase signal ([1]; 3 of 46 cells) | phase response, neurons with decrease of phase signal ([1]; 13 of 46 cells) | phase response, neurons with modest or no detectable signal ([1]; 30 of 46 cells) | change of phase response evoked by GABA in presence of antagonist ([2]; GABA 3 μM 30 s) [%] | effect on phase signal in HEKGABA (in words) [2] | effect on phase signal in HEKGABA (in words) ([2]; listed as Picrotoxin) | reversal potential for Cl− (ECl) from I/V curve ([3]; [Cl−]intrapip 40 mM (44 mM elsewhere in the source)) [mV] | reversal potential for Cl− (ECl) from I/V curve ([3]; [Cl−]intrapip 139 mM) [mV] | effect on phase signal in HEKGABA (in words) ([2]; listed as Muscimol)
NCCCC(=O)O [GABA] | no effect; also recorded: ineffective | 0.33±0.55 | 1.16+/−0.47 ° | −2.55+/−0.29 ° | −0.16+/−0.2 ° | – | – | – | – | – | –
picrotoxin | – | – | – | – | – | −82±17 | reduces the phase shift | blocked | – | – | –
NCc1cc(=O)[nH]o1 [muscimol, Muscimol] | – | – | – | – | – | – | mimicked the effect of GABA | – | −27 | −4 | mimicked
